Reference: the supplement of paper PMC8617591

Key:
[1] = tested on: Mycobacterium tuberculosis Erdman (autoluminescent); assay: total FIC50 (Loewe) at 50% inhibition, three-drug combination (log2); higher = more antagonistic
Procedure: (§1)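 DiaMOND equipotent three-drug combination dose responses (10 doses, 1.5- or 2-fold spacing, centred on IC90) against autoluminescent M. tuberculosis Erdman in 8 in vitro models. Read-out is OD600, or luminescence for the intracellular and dormancy models, normalised to untreated wells. Hill-fit Einf, AUC25 and GRinf are potency metrics; FIC50 and FIC90 are total Loewe fractional inhibitory concentrations as log2 (negative = synergy).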

[2] = tested on: Mycobacterium tuberculosis Erdman (autoluminescent); assay: total FIC90 (Loewe) at 90% inhibition, three-drug combination (log2); higher = more antagonistic
Procedure: as §1

[3] = tested on: Mycobacterium tuberculosis Erdman (autoluminescent); assay: AUC25, normalised area under dose response up to IC25 (three-drug combination) (fraction (0-1)); higher = more potent at low dose
Procedure: as §1

[4] = tested on: Mycobacterium tuberculosis Erdman (autoluminescent); assay: Einf, fitted maximum growth inhibition of three-drug combination (fraction); higher = stronger maximal inhibition
Procedure: as §1

[5] = tested on: Mycobacterium tuberculosis Erdman (autoluminescent); assay: GRinf, maximum normalised growth rate inhibition (three-drug combination) (unitless (-1 to 1)); higher = less effect (negative = killing)
Procedure: as §1

CC(=O)NC[C@H]1CN(c2ccc(N3CCOCC3)c(F)c2)C(=O)O1 [linezolid] + O=[N+]([O-])c1cn2c(n1)OC[C@@H](OCc1ccc(OC(F)(F)F)cc1)C2 [pretomanid] + CO[C@H]1/C=C/O[C@@]2(C)Oc3c(C)c(O)c4c(O)c(c(/C=N/N5CCN(C)CC5)c(O)c4c3C2=O)NC(=O)/C(C)=C\C=C\[C@H](C)[C@H](O)[C@@H](C)[C@@H](O)[C@@H](C)[C@H](OC(C)=O)[C@@H]1C [rifampicin]
Settings	AUC25, [3]	Einf, [4]	GRinf, [5]	total FIC50, [1]	total FIC90, [2]
in vitro model: acidic pH 5.7, time point: constant (~7 days, model-specific)	0.0793	0.893	-0.221	0.745	–
in vitro model: acidic pH 5.7, time point: terminal (~4-5 doublings, model-specific)	0.0641	0.987	-0.265	0.832	0.521
in vitro model: intracellular J774, time point: constant = terminal	–	0.98	-0.287	–	0.288

Settings	AUC25, [3]	Einf, [4]	GRinf, [5]	total FIC50, [1]	total FIC90, [2]
in vitro model: butyrate, time point: constant (~7 days, model-specific)	0.0869	0.896	0.0695	0.127	0.148
in vitro model: butyrate, time point: terminal (~4-5 doublings, model-specific)	0.0669	0.948	0.0615	0.00331	-0.305
in vitro model: cholesterol 0.05 mM, time point: constant (~7 days, model-specific)	0.128	0.66	-0.0769	0.0451	–
in vitro model: cholesterol 0.05 mM, time point: terminal (~4-5 doublings, model-specific)	0.127	0.895	-0.203	0.545	-0.354
in vitro model: cholesterol-high 0.2 mM, time point: constant (~7 days, model-specific)	0.0921	0.885	-0.118	0.326	1.11
in vitro model: cholesterol-high 0.2 mM, time point: terminal (~4-5 doublings, model-specific)	0.0881	0.972	-0.505	0.645	0.499
in vitro model: dormancy (butyrate + nitrate, low O2), time point: constant (~7 days, model-specific)	0.0572	0.911	0.214	0.855	0.28
in vitro model: dormancy (butyrate + nitrate, low O2), time point: terminal (~4-5 doublings, model-specific)	0.0401	0.97	-0.0505	0.25	0.29
in vitro model: standard 7H9 glycerol, time point: constant = terminal	0.0674	0.915	0.0995	0.0346	-0.714
in vitro model: valerate, time point: constant (~7 days, model-specific)	0.1	0.89	-0.015	0.394	–
in vitro model: valerate, time point: terminal (~4-5 doublings, model-specific)	0.0505	0.925	0.0379	0.622	0.278
